Laboratory results published in ChEMBL document CHEMBL1201862, “PubChem BioAssay data set” (2004).
Activity calls are given as the source filed them.

Tests used:
[1] = target: T1, Corticotropin-releasing factor receptor 2/Corticotropin-releasing factor-binding protein (Homo sapiens, UniProt P24387+Q13324); assay: Dose Response confirmation of uHTS hits for small molecule antagonists of the CRF-binding protein and CRF-R2 receptor complex.; type: functional; conditions: read-out: IC50_Mean
T1 sequence (Q13324 whole entry): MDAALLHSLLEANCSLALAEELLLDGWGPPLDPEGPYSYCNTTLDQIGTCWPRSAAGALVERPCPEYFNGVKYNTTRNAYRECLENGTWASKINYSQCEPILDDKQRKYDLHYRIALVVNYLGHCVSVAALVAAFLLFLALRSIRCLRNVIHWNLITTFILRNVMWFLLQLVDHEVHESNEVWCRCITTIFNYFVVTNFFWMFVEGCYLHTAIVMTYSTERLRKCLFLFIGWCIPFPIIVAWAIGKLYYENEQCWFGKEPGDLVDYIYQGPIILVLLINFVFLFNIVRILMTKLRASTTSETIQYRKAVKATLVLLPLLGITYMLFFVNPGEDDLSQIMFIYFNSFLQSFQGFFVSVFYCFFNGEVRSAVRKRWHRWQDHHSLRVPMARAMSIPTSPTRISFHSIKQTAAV
T1 sequence (P24387 whole entry): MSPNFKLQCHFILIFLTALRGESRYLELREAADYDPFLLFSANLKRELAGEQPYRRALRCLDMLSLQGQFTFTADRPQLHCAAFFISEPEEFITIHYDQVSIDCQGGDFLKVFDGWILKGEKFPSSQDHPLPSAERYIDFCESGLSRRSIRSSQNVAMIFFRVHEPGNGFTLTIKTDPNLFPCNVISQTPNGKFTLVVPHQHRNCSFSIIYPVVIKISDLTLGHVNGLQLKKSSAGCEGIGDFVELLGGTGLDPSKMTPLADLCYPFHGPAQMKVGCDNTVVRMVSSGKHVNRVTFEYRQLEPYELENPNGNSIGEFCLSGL

[2] = target: T1, Corticotropin-releasing factor receptor 2/Corticotropin-releasing factor-binding protein; assay: activators of CRF receptor 2 with binding protein – uHTS hits, confirmation (AID 602473); type: functional; conditions: read-out: EC50_Mean
[3] = blockers of CRF-binding protein–CRF-R2 complex – cell-based, uHTS hits, 384-well, dose response (AID 651639); type: functional, Homo sapiens; conditions: read-out: IC50_Mean
[4] = Luminescence Cell-Based Dose Retest to Confirm Inhibitors of Cancer Stem Cells. [Related pubchem assays (depositor defined):AID2717, AID2721]; type: functional; conditions: Homo sapiens
Protein Wnt-3a = Protein Wnt-3a (Mus musculus, UniProt P27467); assay: antagonism of Wnt3a pathway luciferase reporter – Wnt-LIGHT cells, luminescence, selectivity assay for Gli-SUFU antagonist project, dose response (AID 651570); type: functional; conditions: read-out: IC50_Mean;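 further: Wnt-LIGHT reporter cells stimulated with conditioned medium from Wnt3a-producing cells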
Chain of Protein Wnt-3a (P27467 whole entry): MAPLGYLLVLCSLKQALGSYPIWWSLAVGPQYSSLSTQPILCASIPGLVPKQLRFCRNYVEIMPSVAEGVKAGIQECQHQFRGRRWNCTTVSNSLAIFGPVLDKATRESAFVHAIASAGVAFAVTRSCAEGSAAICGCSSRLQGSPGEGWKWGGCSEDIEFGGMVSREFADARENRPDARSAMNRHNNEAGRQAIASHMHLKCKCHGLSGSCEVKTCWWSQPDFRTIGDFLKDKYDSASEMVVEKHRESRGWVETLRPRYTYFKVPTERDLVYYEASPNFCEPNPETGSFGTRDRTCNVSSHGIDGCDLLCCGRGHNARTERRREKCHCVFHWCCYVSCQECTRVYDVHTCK

[5] = target: T2, Adenosylmethionine-8-amino-7-oxononanoate aminotransferase (Mycobacterium tuberculosis, UniProt P9WQ81); assay: Mycobacterium tuberculosis BioA enzyme inhibitor Measured in Biochemical System Using Plate Reader - 2163-02_Inhibitor_Dose_CherryPick_Activity.; type: functional, Mycobacterium tuberculosis UT205
T2 sequence (P9WQ81 whole entry): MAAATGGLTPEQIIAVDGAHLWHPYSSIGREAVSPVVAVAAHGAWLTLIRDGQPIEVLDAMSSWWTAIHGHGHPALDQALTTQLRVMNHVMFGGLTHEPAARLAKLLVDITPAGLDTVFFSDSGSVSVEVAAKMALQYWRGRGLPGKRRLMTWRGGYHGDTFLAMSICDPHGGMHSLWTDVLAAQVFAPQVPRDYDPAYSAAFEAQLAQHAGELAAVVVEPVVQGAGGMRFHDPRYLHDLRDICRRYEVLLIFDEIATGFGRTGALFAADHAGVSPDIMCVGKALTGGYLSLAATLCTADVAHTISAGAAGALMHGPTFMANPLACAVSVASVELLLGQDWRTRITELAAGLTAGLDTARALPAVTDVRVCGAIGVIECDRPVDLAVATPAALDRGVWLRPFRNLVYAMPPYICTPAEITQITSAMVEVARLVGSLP

[6] = target: Ras and Rab interactor 1/Tyrosine-protein kinase ABL1 (Homo sapiens, UniProt P00519+Q13671); type: functional;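 further: biochemical TR-FRET dose-response test measuring inhibition of binding between Rin1 and Abl proteins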
Chain of Ras and Rab interactor 1/Tyrosine-protein kinase ABL1 (P00519 whole entry): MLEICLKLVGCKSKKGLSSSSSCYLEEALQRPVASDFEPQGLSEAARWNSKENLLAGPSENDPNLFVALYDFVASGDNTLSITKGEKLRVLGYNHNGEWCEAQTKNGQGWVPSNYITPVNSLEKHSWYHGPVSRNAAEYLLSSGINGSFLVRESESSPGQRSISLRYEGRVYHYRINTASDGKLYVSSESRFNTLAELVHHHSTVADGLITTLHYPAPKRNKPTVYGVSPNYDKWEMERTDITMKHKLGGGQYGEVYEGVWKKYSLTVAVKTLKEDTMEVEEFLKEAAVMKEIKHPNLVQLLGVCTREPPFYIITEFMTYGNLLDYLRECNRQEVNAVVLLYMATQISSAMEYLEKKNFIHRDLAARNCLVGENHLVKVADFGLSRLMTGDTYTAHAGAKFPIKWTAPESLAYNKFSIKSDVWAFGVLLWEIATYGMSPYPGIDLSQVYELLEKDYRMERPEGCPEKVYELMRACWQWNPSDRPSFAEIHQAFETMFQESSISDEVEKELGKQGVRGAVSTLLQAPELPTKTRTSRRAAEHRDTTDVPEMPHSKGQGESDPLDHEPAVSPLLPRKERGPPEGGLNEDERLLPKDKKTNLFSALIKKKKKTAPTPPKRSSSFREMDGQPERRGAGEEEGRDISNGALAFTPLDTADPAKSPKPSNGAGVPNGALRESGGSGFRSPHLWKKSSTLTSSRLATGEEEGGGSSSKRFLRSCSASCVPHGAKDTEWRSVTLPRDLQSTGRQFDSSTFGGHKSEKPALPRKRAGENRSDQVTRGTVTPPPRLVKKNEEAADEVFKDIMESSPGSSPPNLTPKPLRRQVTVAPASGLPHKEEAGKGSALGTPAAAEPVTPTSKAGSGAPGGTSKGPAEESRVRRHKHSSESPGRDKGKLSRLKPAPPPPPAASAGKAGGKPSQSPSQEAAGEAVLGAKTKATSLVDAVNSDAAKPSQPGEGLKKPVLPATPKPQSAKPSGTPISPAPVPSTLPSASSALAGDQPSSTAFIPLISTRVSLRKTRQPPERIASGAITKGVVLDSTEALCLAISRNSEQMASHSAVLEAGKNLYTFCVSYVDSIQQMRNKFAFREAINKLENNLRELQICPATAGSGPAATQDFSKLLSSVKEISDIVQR
Chain of Ras and Rab interactor 1/Tyrosine-protein kinase ABL1 (Q13671 whole entry): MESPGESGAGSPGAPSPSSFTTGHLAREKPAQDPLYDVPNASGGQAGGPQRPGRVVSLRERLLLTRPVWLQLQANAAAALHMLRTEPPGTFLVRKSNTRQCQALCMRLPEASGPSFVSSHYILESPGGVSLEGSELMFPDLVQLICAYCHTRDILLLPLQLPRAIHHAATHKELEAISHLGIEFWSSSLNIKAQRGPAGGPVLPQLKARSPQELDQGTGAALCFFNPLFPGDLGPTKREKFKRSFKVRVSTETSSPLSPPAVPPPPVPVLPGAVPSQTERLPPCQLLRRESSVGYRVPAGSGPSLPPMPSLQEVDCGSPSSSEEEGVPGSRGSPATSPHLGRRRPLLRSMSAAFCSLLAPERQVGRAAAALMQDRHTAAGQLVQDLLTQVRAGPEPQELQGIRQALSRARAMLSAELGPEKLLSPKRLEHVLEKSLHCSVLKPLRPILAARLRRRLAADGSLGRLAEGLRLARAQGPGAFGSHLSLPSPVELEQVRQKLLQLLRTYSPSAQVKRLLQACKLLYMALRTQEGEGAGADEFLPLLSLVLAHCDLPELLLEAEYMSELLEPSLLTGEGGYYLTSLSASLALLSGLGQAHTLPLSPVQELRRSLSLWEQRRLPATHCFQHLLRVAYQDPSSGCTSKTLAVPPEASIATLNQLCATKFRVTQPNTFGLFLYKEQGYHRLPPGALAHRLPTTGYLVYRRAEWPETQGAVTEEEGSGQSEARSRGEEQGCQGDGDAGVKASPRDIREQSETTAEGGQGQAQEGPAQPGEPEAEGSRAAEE

INS1 = assay: INS-1E survival protection against cytokine death – cell-based, luminescence, retest, dose response (AID 449756); type: functional; conditions: Rattus norvegicus;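 further: cell death triggered by IL-1 beta plus TNF-alpha plus IFN-gamma mixture; protective hits raise ATP signal compared with cytokine alone wells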
[7] = reduction of Shn3 3'UTR-driven luciferase in osteoblasts – cell-based, Clone20 osteoblasts, firefly luciferase, cherry-picked, dose response (AID 624132); type: functional;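 further: firefly luciferase luminescence from reporter carrying the Shn3 3'UTR in osteoblasts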
[8] = loss of viability in HepG2 cells – cell-based, CellTiter-Glo, cherry-picked, cytotoxicity control for Shn3 inhibitor project, dose response (AID 624134); type: functional
[9] = non-specific 3'UTR reporter inhibition in Clone20-Shn3RL – cell-based, Renilla luciferase, cherry-picked, counter-screen for Shn3 inhibitor project, dose response (AID 624133); type: functional
[10] = NIH-3T3 fibroblast cytotoxicity, dose response, cytotoxicity control, cell-based, fluorescence, Alamar Blue, secondary assay (AID 2327); type: functional;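 further: NIH-3T3 mouse fibroblasts cultured with fluconazole at 8 µg/mL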
Aminopeptidase N = target: T3, Aminopeptidase N (Plasmodium falciparum FcB1/Columbia, UniProt O96935); assay: malaria alanyl aminopeptidase activity blockers – biochemical, fluorogenic H-Leu-NHMec substrate, 1536-well (AID 1445); set-up: species or system Plasmodium falciparum 3D7, 3D7
T3 sequence (O96935 whole entry): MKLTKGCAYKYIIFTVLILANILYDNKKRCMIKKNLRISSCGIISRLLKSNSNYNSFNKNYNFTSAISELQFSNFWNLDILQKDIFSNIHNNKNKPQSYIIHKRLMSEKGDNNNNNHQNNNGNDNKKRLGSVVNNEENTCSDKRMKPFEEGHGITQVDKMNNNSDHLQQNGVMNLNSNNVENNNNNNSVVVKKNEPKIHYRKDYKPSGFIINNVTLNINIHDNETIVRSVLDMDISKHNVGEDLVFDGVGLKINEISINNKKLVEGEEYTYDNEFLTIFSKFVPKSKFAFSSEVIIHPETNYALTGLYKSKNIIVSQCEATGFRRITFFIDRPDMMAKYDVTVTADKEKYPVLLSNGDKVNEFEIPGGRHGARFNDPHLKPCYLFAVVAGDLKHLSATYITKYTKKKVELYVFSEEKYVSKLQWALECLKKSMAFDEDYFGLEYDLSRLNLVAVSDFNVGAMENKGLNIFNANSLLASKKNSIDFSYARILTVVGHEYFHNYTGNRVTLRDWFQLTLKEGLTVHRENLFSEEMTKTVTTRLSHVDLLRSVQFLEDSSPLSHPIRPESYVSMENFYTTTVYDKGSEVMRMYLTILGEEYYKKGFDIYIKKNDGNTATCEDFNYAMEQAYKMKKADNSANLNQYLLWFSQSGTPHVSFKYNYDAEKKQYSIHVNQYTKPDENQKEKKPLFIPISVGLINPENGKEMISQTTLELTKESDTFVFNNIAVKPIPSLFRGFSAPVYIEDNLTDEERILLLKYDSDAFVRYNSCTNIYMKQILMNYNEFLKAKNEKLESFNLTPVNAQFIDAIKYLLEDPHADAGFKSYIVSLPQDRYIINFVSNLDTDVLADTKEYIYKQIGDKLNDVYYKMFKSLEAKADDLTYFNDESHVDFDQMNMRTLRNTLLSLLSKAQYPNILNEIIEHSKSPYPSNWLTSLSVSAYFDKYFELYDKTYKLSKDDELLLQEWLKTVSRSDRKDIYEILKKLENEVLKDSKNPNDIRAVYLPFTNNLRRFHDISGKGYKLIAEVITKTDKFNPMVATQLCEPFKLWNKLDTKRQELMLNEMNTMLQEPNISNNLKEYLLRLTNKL

BJ [11] = assay: BJ-TERT fibroblast viability loss – cell-based, RAS-independent, luminescence, dose response (AID 1933); type: functional; conditions: Homo sapiens
BJ [12] = assay: cells; type: functional, cell-based; conditions: Homo sapiens
[13] = fluconazole-exposed Candida albicans growth modulators – fluorescence, retest, confirmation (AID 2467); type: functional, cell-based
BJ [14] = assay: BJ-TERT-LT-ST fibroblast viability loss – cell-based, RAS-independent, luminescence, dose response (AID 1935); type: functional; conditions: Homo sapiens;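 further: BJ fibroblasts immortalized with TERT plus LT and ST oncogenes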
[15] = DRD fibroblast viability loss – cell-based, non-viral oncogenic, luminescence, dose response (AID 1934); type: functional; conditions: Homo sapiens
BJ [16] = assay: growth inhibition of engineered Ras-driven BJ cells – cell-based, alamar blue fluorescence, cherrypicked samples, dose response (AID 2631); type: functional; conditions: Homo sapiens;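 further: confirmatory dose-response assay in RAS-dependent BJ fibroblasts engineered with TERT, LT and ST, with cytotoxicity read by fluorescence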
[17] = target: T4, DNA repair protein RAD52 homolog (Homo sapiens, UniProt P43351); type: functional, biochemical
T4 sequence (P43351 whole entry): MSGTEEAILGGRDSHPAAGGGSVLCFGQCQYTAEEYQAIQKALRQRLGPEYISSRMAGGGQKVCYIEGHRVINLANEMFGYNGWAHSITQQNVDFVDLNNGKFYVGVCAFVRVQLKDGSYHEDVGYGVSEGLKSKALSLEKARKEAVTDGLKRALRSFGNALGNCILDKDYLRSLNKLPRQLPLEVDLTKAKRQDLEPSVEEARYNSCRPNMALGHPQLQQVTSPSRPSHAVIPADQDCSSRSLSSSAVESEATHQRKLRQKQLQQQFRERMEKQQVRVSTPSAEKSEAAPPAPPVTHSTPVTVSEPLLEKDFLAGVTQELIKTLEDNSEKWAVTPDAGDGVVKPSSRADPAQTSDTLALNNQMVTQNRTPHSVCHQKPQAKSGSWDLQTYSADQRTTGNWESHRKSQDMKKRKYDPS

[18] = decrease of insulin promoter-GFP reporter – imaging, high-content screening, mouse beta cells (AID 1628); type: functional; conditions: MIN6
[19] = MIN6 cell viability loss – mouse insulinoma, cytotoxicity control, dose response (AID 2122); type: functional;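 further: confirmatory high-throughput counterscreen run to flag cytotoxic compounds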

CN(C)c1ccc(C=C2C(=O)OC3(CCCC3)OC2=O)cc1
IC50 [1]: 2.41 µM (active)
EC50 [2]: 44.2 µM (active)
IC50 [3]: 2.36 µM (active)

O=C(N[C@H]1C/C=C\C[C@@H](CC(=O)N(CCO)Cc2ccccc2)C(=O)NC[C@H](c2ccccc2)OC1=O)OCC1c2ccccc2-c2ccccc21
AC50 [4]: 2.24 µM (active)
IC50 (Protein Wnt-3a): 7.16 µM (active)

CCc1nn(CCCC(=O)N(C)Cc2ccccc2)c(=O)c2cc3occc3n12
AC50 [5]: 4.73 µM (active)

COc1ccc(NC(=O)CN(C)C(=O)Cc2ccc(S(=O)(=O)N3CCOCC3)s2)cc1
IC50 [6]: 2.03 µM (active)

CC12CCC(=O)N1C(C(=O)Nc1nnc(SCc3ccccc3F)s1)CS2 (centres undefined)
IC50 [6]: 4.08 µM (active)

CCn1/c(=N\C(=O)CCS(=O)(=O)c2ccccc2)sc2cccc(OC)c21
AC50 (INS1): 5.08 µM (active)
AC50 [7]: 1.28 µM (active)
AC50 [8]: > 70 µM (inactive)
AC50 [9]: 3.05 µM (active)
IC50 (Protein Wnt-3a): 0.803 µM (active)

CCCCCCCCCC[n+]1cccc2c3ccccc3ccc21
EC50 [10]: > 150 µM (inactive)
IC50 (Aminopeptidase N): 89.6 µM (active)
EC50 (BJ [11]): 2.78 µM (active)
EC50 (BJ [12]): 11.8 µM (active)
EC50 [13]: 0.723 µM (active)
EC50 (BJ [14]): 10.2 µM (active)
EC50 [15]: 8.72 µM (active)
EC50 (BJ [16]): 5.93 µM (active)
AC50 [17]: 6.58 µM (active)

Cc1ccccc1Cn1c(=N)n(CC(=O)c2ccco2)c2ccccc21
IC50 [18]: 3.99 µM (active)
IC50 [19]: 7.02 µM (active)
